Tests used:
[1] = target: Dual specificity protein kinase CLK3 (Homo sapiens) (UniProt P49761); details: Compound concentration 1000.0 nM
[2] = target: Ephrin type-B receptor 2 (Homo sapiens) (UniProt P29323); details: Compound concentration 1000.0 nM
[3] = target: Tyrosine-protein kinase FRK (Homo sapiens) (UniProt P42685); details: Compound concentration 1000.0 nM
[4] = target: Phosphatidylinositol 4,5-bisphosphate 3-kinase catalytic subunit alpha isoform (Homo sapiens) (UniProt P42336); details: Compound concentration 1000.0 nM
[5] = target: Serine/threonine-protein kinase 4 (Homo sapiens) (UniProt Q13043); details: Compound concentration 1000.0 nM
[6] = target: Peripheral plasma membrane protein CASK (Homo sapiens) (UniProt O14936); details: Compound concentration 1000.0 nM
[7] = target: Proto-oncogene tyrosine-protein kinase Src (Homo sapiens) (UniProt P12931); details: Compound concentration 1000.0 nM
[8] = target: Serine/threonine-protein kinase Chk2 (Homo sapiens) (UniProt O96017); details: Compound concentration 1000.0 nM
[9] = system: Mast/stem cell growth factor receptor Kit (Homo sapiens), P10721 [V559D,V654A]; details: Compound concentration 1000.0 nM
[10] = target: Mast/stem cell growth factor receptor Kit (Homo sapiens) (UniProt P10721); details: Compound concentration 1000.0 nM
[11] = target: Cyclin-dependent kinase 11A (Homo sapiens) (UniProt Q9UQ88); details: Compound concentration 1000.0 nM
[12] = target: Serine/threonine-protein kinase PAK 6 (Homo sapiens) (UniProt Q9NQU5); details: Compound concentration 1000.0 nM
[13] = target: Serine/threonine-protein kinase 24 (Homo sapiens) (UniProt Q9Y6E0); details: Compound concentration 1000.0 nM
[14] = target: Kappa-type opioid receptor (Homo sapiens) (UniProt P41145); details: Compound concentration 10.0 uM
[15] = target: Tyrosine-protein kinase ZAP-70 (Homo sapiens) (UniProt P43403); details: Compound concentration 1000.0 nM
[16] = target: Serine/threonine-protein kinase pim-2 (Homo sapiens) (UniProt Q9P1W9); details: Compound concentration 1000.0 nM
[17] = target: Transient receptor potential cation channel subfamily M member 6 (Homo sapiens) (UniProt Q9BX84); details: Compound concentration 1000.0 nM
[18] = target: Tyrosine-protein kinase Blk (Homo sapiens) (UniProt P51451); details: Compound concentration 1000.0 nM
[19] = target: Serine/threonine-protein kinase B-raf (Homo sapiens) (UniProt P15056); details: Compound concentration 1000.0 nM
[20] = target: Mitogen-activated protein kinase kinase kinase 12 (Homo sapiens) (UniProt Q12852); details: Compound concentration 1000.0 nM
[21] = target: Calcium/calmodulin-dependent protein kinase type IV (Homo sapiens) (UniProt Q16566); details: Compound concentration 1000.0 nM
[22] = target: ALK tyrosine kinase receptor (Homo sapiens) (UniProt Q9UM73); details: Compound concentration 1000.0 nM
[23] = target: Myosin-IIIa (Homo sapiens) (UniProt Q8NEV4); details: Compound concentration 1000.0 nM
[24] = target: D(1A) dopamine receptor (Homo sapiens) (UniProt P21728); details: Compound concentration 10.0 uM
[25] = target: Activin receptor type-2A (Homo sapiens) (UniProt P27037); details: Compound concentration 1000.0 nM
[26] = target: Mitogen-activated protein kinase 11 (Homo sapiens) (UniProt Q15759); details: Compound concentration 1000.0 nM
[27] = target: Cyclin-dependent kinase 14 (Homo sapiens) (UniProt O94921); details: Compound concentration 1000.0 nM
[28] = system: Receptor-type tyrosine-protein kinase FLT3 (Homo sapiens), P36888 [UNDEFINED MUTATION]; details: Compound concentration 1000.0 nM
[29] = system: ALK tyrosine kinase receptor (Homo sapiens), Q9UM73 [L1196M]; details: Compound concentration 1000.0 nM
[30] = target: Serine/threonine-protein kinase Nek5 (Homo sapiens) (UniProt Q6P3R8); details: Compound concentration 1000.0 nM
[31] = target: Mitogen-activated protein kinase kinase kinase 3 (Homo sapiens) (UniProt Q99759); details: Compound concentration 1000.0 nM
[32] = system: Epidermal growth factor receptor (Homo sapiens), P00533 [L861Q]; details: Compound concentration 1000.0 nM
[33] = target: Protein kinase C delta type (Homo sapiens) (UniProt Q05655); details: Compound concentration 1000.0 nM
[34] = target: Mitogen-activated protein kinase 15 (Homo sapiens) (UniProt Q8TD08); details: Compound concentration 1000.0 nM
[35] = target: T1, 5-hydroxytryptamine receptor 3A (Homo sapiens) (UniProt P46098); details: Compound concentration 10.0 uM
T1 sequence (whole entry): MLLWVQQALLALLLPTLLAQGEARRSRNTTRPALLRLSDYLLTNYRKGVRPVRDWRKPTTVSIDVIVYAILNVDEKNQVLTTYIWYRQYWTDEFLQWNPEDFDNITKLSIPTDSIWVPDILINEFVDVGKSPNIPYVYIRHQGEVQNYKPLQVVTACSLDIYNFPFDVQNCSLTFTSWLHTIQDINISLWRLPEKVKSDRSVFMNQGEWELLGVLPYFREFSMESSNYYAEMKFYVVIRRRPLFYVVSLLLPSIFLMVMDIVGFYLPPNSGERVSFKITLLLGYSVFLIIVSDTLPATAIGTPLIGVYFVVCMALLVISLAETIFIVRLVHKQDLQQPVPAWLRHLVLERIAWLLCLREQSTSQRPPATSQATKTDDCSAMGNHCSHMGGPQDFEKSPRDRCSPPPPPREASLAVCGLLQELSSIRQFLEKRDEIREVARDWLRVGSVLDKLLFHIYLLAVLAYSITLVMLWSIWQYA

[36] = target: Bone morphogenetic protein receptor type-2 (Homo sapiens) (UniProt Q13873); details: Compound concentration 1000.0 nM
[37] = target: cAMP-dependent protein kinase catalytic subunit PRKX (Homo sapiens) (UniProt P51817); details: Compound concentration 1000.0 nM
[38] = target: Serine/threonine-protein kinase LATS1 (Homo sapiens) (UniProt O95835); details: Compound concentration 1000.0 nM
[39] = system: Serine/threonine-protein kinase B-raf (Homo sapiens), P15056 [V600E]; details: Compound concentration 1000.0 nM

Chain of cAMP-dependent protein kinase catalytic subunit PRKX (Homo sapiens) (P51817 whole entry): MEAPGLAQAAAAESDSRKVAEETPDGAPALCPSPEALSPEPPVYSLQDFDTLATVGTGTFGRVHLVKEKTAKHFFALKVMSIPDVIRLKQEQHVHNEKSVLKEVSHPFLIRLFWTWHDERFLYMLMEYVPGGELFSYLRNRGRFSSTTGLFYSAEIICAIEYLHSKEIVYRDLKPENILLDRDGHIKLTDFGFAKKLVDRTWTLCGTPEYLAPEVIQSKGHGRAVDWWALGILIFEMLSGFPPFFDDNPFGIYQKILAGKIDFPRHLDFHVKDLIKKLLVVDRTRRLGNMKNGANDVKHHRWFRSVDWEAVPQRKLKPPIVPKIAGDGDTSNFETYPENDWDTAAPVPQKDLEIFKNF
Chain of Kappa-type opioid receptor (Homo sapiens) (P41145 whole entry): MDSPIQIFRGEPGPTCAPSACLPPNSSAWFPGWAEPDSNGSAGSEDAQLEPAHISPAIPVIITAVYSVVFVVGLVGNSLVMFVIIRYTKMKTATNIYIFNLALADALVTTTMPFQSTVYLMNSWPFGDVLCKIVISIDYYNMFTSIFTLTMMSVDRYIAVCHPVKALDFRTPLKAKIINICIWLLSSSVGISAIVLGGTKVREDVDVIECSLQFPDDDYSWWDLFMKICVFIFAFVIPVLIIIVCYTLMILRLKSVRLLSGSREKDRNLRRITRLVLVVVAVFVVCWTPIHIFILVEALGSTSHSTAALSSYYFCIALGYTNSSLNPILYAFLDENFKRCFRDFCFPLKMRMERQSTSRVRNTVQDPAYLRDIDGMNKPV
Chain of Mitogen-activated protein kinase 11 (Homo sapiens) (Q15759 whole entry): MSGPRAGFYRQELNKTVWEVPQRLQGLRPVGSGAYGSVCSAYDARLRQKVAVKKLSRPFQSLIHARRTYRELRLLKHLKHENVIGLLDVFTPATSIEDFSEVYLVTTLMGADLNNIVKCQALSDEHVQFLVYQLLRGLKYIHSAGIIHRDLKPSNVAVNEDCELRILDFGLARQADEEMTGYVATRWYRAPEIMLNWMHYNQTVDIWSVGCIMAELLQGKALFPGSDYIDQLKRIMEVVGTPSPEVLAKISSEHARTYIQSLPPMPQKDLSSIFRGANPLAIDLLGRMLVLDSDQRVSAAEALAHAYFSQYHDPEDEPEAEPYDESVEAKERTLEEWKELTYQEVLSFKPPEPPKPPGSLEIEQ
Chain of Serine/threonine-protein kinase 4 (Homo sapiens) (Q13043 whole entry): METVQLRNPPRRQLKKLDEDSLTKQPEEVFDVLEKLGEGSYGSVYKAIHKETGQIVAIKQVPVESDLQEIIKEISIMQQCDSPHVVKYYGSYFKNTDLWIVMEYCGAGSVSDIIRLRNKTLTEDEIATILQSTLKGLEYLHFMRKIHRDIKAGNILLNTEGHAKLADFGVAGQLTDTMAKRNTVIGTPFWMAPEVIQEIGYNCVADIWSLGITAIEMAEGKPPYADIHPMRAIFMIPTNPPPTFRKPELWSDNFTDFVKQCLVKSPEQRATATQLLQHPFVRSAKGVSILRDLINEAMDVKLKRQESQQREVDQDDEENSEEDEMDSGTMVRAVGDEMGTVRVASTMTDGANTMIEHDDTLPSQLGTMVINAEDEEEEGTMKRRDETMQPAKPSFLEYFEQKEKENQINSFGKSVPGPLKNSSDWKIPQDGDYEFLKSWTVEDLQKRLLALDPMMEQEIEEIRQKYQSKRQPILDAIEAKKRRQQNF
Chain of Activin receptor type-2A (Homo sapiens) (P27037 whole entry): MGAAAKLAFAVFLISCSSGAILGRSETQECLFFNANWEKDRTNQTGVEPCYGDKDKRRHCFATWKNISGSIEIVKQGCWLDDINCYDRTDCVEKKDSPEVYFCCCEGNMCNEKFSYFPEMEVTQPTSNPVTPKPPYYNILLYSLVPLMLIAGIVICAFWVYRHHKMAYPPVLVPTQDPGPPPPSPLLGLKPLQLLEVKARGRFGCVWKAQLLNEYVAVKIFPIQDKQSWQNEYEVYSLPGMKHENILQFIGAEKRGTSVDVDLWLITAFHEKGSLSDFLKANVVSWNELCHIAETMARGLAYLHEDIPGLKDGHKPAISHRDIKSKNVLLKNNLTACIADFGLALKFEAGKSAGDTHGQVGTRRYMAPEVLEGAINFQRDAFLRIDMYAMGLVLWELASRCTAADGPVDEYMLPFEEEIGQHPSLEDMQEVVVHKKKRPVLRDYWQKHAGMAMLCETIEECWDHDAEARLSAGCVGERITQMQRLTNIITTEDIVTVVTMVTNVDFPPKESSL
Chain of Serine/threonine-protein kinase LATS1 (Homo sapiens) (O95835 whole entry): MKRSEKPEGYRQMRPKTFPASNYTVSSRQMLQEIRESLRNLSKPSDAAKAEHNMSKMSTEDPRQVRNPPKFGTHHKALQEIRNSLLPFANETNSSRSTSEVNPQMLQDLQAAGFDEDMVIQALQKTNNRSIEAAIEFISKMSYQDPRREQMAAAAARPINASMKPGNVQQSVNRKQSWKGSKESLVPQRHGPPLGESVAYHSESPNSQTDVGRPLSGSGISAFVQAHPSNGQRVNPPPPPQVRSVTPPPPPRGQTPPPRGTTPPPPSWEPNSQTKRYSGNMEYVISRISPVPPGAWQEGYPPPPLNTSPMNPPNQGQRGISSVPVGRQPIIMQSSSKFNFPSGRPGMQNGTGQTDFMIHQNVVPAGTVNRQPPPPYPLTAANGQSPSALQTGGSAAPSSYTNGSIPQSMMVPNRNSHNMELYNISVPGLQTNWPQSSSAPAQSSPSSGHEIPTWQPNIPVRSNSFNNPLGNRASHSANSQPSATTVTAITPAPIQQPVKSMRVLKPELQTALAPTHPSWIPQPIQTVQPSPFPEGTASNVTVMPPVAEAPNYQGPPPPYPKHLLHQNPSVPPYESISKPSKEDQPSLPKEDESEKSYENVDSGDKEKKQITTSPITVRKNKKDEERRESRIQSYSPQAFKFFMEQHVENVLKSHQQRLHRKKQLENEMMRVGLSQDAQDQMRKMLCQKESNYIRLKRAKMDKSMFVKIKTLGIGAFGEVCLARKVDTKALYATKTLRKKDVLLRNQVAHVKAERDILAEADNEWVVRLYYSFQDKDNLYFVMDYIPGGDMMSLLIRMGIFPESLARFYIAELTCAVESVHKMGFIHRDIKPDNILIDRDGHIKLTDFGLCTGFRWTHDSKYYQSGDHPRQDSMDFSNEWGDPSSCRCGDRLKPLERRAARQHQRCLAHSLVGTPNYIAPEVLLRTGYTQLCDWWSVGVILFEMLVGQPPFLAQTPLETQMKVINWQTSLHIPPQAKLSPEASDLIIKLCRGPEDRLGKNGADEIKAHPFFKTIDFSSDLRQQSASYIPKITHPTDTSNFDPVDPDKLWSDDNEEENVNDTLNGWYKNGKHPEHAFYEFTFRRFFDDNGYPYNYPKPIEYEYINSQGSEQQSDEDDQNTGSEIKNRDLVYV
Chain of D(1A) dopamine receptor (Homo sapiens) (P21728 whole entry): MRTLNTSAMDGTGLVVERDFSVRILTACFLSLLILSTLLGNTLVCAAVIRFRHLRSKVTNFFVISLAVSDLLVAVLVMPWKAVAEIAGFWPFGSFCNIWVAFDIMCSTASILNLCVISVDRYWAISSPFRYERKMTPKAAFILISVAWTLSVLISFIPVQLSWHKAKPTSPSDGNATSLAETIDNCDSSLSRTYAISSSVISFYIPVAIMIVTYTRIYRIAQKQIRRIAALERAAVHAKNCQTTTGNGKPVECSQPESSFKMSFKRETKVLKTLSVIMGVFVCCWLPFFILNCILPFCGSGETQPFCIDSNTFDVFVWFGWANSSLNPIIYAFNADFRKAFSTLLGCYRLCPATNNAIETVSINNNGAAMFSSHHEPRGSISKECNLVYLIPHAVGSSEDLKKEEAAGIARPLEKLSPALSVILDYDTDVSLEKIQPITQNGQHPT
Chain of Serine/threonine-protein kinase pim-2 (Homo sapiens) (Q9P1W9 whole entry, looked up): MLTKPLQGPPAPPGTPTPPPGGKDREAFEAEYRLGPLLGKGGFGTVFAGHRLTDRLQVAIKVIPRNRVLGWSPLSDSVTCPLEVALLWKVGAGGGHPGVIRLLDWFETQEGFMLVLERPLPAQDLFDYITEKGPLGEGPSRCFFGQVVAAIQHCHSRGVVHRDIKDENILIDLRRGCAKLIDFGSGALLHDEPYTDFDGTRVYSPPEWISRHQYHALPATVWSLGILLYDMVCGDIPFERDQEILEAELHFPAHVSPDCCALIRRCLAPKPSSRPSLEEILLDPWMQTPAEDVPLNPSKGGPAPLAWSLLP
Chain of Cyclin-dependent kinase 11A (Homo sapiens) (Q9UQ88 whole entry): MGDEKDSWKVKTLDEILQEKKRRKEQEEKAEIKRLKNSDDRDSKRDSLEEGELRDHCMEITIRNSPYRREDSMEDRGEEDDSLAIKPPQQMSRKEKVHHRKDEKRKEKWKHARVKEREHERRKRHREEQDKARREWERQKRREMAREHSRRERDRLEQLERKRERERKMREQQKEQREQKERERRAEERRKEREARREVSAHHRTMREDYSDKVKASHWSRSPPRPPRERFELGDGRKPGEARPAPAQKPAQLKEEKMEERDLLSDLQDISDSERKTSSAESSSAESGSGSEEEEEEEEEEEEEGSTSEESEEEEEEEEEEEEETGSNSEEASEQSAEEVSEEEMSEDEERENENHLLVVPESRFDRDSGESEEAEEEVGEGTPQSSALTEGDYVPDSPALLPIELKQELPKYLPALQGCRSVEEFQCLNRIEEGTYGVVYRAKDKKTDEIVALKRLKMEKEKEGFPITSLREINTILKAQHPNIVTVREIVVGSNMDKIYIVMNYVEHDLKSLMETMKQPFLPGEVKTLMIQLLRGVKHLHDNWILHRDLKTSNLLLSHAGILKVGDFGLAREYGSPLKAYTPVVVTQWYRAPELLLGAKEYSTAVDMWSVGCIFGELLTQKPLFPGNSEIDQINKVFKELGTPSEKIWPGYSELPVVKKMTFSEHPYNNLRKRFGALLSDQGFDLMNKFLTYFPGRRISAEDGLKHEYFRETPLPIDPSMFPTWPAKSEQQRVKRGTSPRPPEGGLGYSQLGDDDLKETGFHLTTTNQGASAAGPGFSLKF

Cn1cncc1[C@@](O)(COc1ccc(C#N)cc1-c1ccc(OC(F)(F)F)cc1)c1ccc(C#N)cc1 [A-108]
inactive: residual activity [1] 100% | residual activity [2] 100% | residual activity [3] 100% | residual activity [4] 72% | residual activity [5] 100% | residual activity [6] 92% | residual activity [7] 100% | residual activity [8] 96% | residual activity [9] 100% | residual activity [10] 98% | residual activity [11] 100% | residual activity [12] 100% | residual activity [13] 100% | inhibition [14] 1.27% | residual activity [15] 100% | residual activity [16] 100% | residual activity [17] 100% | residual activity [18] 71% | residual activity [19] 100% | residual activity [20] 100% | residual activity [21] 100% | residual activity [22] 70% | residual activity [23] 98% | inhibition [24] 19% | residual activity [25] 98% | residual activity [26] 96% | residual activity [27] 100% | residual activity [28] 100% | residual activity [29] 100% | residual activity [30] 98% | residual activity [31] 81% | residual activity [32] 100% | residual activity [33] 100% | residual activity [34] 100% | inhibition [35] -0.62% | residual activity [36] 100% | residual activity [37] 94% | residual activity [38] 100% | residual activity [39] 100%

Cn1cncc1[C@](O)(COc1ccc(C#N)cc1-c1ccc(OC(F)(F)F)cc1)c1ccc(C#N)cc1 [ABT-100]
inactive: residual activity [1] 75% | residual activity [2] 94% | residual activity [3] 100% | residual activity [4] 100% | residual activity [5] 86% | residual activity [6] 83% | residual activity [7] 81% | residual activity [8] 100% | residual activity [9] 100% | residual activity [10] 100% | residual activity [11] 100% | residual activity [12] 98% | residual activity [13] 90% | inhibition [14] -7.18% | residual activity [15] 78% | residual activity [16] 84% | residual activity [17] 100% | residual activity [18] 90% | residual activity [19] 84% | residual activity [20] 100% | residual activity [21] 100% | residual activity [22] 100% | residual activity [23] 100% | inhibition [24] 4.35% | residual activity [25] 100% | residual activity [26] 90% | residual activity [27] 86% | residual activity [28] 98% | residual activity [29] 100% | residual activity [30] 72% | residual activity [31] 100% | residual activity [32] 71% | residual activity [33] 66% | residual activity [34] 58% | inhibition [35] 17.6% | residual activity [36] 89% | residual activity [37] 87% | residual activity [38] 87% | residual activity [39] 82%
